Results from patent US9617242B2, “Histone demethylase inhibitors” (priority 2012, dated 2017).

How the values were obtained:
JMJD2C = JMJD2C (Homo sapiens (Human), UniProt Q9H3R0); test: JMJD2C in vitro enzyme inhibition assay (TR-FRET); assay type: biochemical
KDM5A/B = test: In vitro cell-based assay: tri-methyl H3K4 immuno-blotting in ZR-75-1 breast cancer cells; settings: 72 hours, read-out: Cellular IC50
Description: This quantitative immuno-blotting assay measures the amount tri-methylated histone H3 at amino acid Lysine number 4, a specific substrate […] of the direct enzymatic activity of the histone demethylases KDM5A and KDM5B from extracts of the ZR-75-1 breast cancer cell line.
This assay is a fluorometric immunoassay for the quantification of tri-methyl H3K4 extracted from cells treated with test compound and is used as a measure of the cellular inhibition of KDM5A/B.
Extracts were prepared containing all of the cellular histone material using detergent based lysis and sonication methods. These lysates were subsequently normalized for total protein content using a colorimetric bicinchonic acid assay (MicroBCA Pierce/Thermo Scientific). Normalized cell extracts were then subjected to typical immuno-blotting procedures using NuPage reagents (Life Technologies). Electrophoretically separated histones were then transferred and immobilized using polyvinylidene difluoride membrane (Immobilon-FL Millipore). The amount of tri-methylated lysine 4 of histone H3 was detected using an antibody specific to the tri-methylated state (Cell Signaling Technologies) and quantified on an infrared imager using a densitometry software package (Odyssey CLx, Image Studio, Li-Cor). This background subtracted densitometry value was reported as a ration of the GAPDH amount for that sample and then calculated as a percent of the DMSO treated sample. The software package XL-fit (IDBS) was then used to calculate a relative IC50 value for the dilution series of a given test compound according to the equation: fit=(D+((Vmax*(x^n))/((x^n)+(Km^n)))).

Jarid1B = Jarid1B (Homo sapiens (Human), UniProt Q9UGL1); test: Jarid1B in vitro enzyme inhibition assay (TR-FRET); assay type: biochemical
Chain of Jarid1B (Q9UGL1 2-751): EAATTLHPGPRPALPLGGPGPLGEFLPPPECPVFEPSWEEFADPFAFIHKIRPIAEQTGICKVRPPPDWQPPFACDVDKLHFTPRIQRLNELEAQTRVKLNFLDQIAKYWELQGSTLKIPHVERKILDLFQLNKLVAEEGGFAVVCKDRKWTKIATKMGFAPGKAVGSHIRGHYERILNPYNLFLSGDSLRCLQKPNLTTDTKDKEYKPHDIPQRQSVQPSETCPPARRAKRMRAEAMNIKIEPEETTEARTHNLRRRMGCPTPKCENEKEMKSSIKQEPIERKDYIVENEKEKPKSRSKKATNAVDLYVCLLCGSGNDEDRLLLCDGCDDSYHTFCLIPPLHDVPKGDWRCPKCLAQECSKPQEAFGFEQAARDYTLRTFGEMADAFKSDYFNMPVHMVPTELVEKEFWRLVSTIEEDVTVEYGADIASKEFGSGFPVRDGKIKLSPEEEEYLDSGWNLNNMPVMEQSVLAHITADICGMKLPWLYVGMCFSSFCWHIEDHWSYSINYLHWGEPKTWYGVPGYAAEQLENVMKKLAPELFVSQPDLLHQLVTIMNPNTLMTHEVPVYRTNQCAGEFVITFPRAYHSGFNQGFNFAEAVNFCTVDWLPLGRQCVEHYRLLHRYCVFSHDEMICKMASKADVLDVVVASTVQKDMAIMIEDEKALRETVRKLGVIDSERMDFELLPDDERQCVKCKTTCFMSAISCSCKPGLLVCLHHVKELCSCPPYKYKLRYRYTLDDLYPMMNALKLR

Jarid1A = Jarid1A (Homo sapiens (Human), UniProt P29375); test: Jarid1A in vitro enzyme inhibition assay (TR-FRET); assay type: biochemical
Chain of Jarid1A (P29375 1-1090): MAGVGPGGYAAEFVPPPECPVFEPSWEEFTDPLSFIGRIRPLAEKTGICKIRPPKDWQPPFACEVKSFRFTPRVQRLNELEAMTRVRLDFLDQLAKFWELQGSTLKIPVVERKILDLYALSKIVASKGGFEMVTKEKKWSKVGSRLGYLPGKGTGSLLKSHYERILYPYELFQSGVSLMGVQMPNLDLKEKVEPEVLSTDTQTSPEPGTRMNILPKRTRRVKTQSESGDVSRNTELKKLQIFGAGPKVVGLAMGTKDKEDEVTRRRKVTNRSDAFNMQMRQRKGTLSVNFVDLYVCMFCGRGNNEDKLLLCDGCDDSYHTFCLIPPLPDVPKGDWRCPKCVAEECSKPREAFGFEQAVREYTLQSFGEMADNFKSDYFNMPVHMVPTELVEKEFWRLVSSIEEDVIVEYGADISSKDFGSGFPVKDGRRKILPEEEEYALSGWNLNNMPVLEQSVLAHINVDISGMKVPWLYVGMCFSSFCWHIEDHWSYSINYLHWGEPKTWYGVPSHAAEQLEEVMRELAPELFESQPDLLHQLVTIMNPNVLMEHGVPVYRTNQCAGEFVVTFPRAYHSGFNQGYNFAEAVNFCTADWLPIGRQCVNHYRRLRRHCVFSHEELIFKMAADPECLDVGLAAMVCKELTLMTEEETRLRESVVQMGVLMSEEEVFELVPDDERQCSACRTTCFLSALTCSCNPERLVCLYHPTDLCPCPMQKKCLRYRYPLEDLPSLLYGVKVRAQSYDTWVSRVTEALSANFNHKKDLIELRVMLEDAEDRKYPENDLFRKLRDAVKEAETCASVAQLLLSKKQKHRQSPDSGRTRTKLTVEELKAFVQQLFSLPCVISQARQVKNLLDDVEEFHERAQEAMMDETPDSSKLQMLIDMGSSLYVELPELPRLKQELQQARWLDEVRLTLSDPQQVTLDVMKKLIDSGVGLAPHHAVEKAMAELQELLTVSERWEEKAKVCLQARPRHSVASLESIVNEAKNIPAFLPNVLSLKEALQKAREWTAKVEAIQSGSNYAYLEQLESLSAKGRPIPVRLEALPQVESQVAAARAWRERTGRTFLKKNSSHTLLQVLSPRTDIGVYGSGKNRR

Chain of JMJD2C (Q9H3R0 2-372): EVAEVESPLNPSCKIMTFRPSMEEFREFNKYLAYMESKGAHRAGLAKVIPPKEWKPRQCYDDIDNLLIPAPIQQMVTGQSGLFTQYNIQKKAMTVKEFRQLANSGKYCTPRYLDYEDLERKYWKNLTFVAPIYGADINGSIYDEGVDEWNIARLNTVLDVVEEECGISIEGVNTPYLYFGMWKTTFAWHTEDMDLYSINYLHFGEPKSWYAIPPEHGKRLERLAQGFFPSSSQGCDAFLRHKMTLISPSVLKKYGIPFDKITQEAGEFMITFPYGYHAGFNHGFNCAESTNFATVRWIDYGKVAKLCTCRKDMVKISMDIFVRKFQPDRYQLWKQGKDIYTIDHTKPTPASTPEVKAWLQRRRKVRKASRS

Row | SMILES | IC50 (JMJD2C) [nM] | IC50 (KDM5A/B) [nM] | IC50 (Jarid1B) [nM] | IC50 (Jarid1A) [nM]
1 | CCCn1nc(Nc2cnccc2C(=O)O)c2cc(C#N)ccc21 [Example 53] | < 100 | 1000 to 10000 | < 100 | < 100
2 | O=C(O)c1ccncc1Nc1nn(C2CCOC2)c2ccc(F)cc12 (stereo not shown) [Example 54, 3-{[5-fluoro-1-(tetrahydrofuran-3-yl)-1H-indazol-3-yl]amino}pyridine-4-carboxylic acid] | < 100 | 1000 to 10000 | < 100 | < 100
3 | CN1CCOC(CCn2nc(Nc3cnccc3C(=O)O)c3cc(F)ccc32)C1 (stereo not shown) [Example 58, 3-({5-fluoro-1-[2-(4-methylmorpholin-2-yl)ethyl]-1H-indazol-3-yl}amino)pyridine-4-carboxylic acid] | < 100 | 1000 to 10000 | < 100 | < 100
4 | O=C(O)c1ccncc1Nc1nn([C@H]2CCOC2)c2ccc(F)cc12 [Example 66, 3-({5-fluoro-1-[(3S)-tetrahydrofuran-3-yl]-1H-indazol-3-yl}amino)pyridine-4-carboxylic acid] | < 100 | 1000 to 10000 | < 100 | < 100
5 | O=C(O)c1ccncc1Nc1nn([C@@H]2CCOC2)c2ccc(F)cc12 [Example 67, 3-({5-fluoro-1-[(3R)-tetrahydrofuran-3-yl]-1H-indazol-3-yl}amino)pyridine-4-carboxylic acid] | < 100 | 1000 to 10000 | < 100 | < 100
6 | O=C(O)c1ccncc1Nc1nn(CCN2CCC(F)(F)C2)c2ccc(F)cc12 [Example 71, 3-({1-[2-(3,3-difluoropyrrolidin-1yl)ethyl]-5-fluoro-1H-indazol-3-yl}amino)pyridine-4-carboxylic acid] | < 100 | 1000 to 10000 | < 100 | < 100
7 | O=C(O)c1ccncc1Nc1nn(CCN2CCC(F)(F)CC2)c2ccc(F)cc12 [Example 73, 3-({1-[2-(4,4-difluoropiperidin-1yl)ethyl]-5-fluoro-1H-indazol-3-yl}amino)pyridine-4-carboxylic acid] | < 100 | 100 to 1000 | < 100 | < 100
